≈ marks a conversion by molar mass, not a printed value.
Tests used:
[1] = target: T1, Receptor-type tyrosine-protein kinase FLT3 (Homo sapiens, UniProt P36888); experiment: Inhibition of FLT3 (unknown origin) by FRET-based homogeneous assay
T1 sequence (P36888 whole entry): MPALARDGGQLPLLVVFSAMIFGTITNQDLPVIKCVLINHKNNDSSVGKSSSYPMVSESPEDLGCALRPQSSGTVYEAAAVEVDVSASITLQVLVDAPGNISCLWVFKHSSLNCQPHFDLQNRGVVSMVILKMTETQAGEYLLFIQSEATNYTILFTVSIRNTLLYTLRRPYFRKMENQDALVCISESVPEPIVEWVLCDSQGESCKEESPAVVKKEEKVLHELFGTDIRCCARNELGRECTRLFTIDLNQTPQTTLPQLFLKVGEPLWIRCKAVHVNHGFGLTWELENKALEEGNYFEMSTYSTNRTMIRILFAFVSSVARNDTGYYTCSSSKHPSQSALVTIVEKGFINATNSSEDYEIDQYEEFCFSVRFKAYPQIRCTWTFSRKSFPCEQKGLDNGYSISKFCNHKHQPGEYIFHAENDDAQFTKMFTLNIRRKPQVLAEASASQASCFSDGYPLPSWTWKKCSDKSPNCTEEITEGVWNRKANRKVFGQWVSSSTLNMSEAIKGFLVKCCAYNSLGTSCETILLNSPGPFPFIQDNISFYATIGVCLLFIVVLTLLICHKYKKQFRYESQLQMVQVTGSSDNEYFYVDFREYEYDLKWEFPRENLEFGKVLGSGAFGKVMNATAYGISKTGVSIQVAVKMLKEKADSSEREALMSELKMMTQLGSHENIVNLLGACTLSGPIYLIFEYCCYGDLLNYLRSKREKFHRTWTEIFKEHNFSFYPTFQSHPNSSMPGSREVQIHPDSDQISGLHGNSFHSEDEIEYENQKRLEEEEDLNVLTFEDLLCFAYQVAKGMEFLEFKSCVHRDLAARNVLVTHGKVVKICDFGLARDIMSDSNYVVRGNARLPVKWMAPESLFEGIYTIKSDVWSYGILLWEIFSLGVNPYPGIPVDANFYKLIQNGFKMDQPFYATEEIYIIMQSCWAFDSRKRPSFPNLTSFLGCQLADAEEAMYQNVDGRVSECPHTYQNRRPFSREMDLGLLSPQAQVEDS

[2] = test system: MCF7; experiment: Cytotoxicity against human MCF7 cells after 5 days by SRB assay; assay type: functional; conditions: MCF7, 120 h
[3] = target: Cytochrome P450 3A4 (Homo sapiens, UniProt P08684); experiment: Inhibition of CYP3A4 (unknown origin) using BFC substrate after 30 mins by fluorescence assay; assay type: ADME
[4] = Protein binding in plasma (unknown origin); assay type: ADME, cell-free; conditions: read-out: PPB (converted)
[5] = target: Cytochrome P450 2D6 (Homo sapiens, UniProt P10635); experiment: Inhibition of CYP2D6 (unknown origin) using AMMC substrate after 45 mins by fluorescence assay; assay type: ADME
[6] = target: Vascular endothelial growth factor receptor 2 (Homo sapiens, UniProt P35968); experiment: Inhibition of KDR (unknown origin) by FRET-based homogeneous assay
[7] = target: T2, Cytochrome P450 1A2 (Homo sapiens, UniProt P05177); experiment: Inhibition of CYP1A2 (unknown origin) using CEC substrate after 15 mins by fluorescence assay; assay type: ADME
T2 sequence (P05177 whole entry): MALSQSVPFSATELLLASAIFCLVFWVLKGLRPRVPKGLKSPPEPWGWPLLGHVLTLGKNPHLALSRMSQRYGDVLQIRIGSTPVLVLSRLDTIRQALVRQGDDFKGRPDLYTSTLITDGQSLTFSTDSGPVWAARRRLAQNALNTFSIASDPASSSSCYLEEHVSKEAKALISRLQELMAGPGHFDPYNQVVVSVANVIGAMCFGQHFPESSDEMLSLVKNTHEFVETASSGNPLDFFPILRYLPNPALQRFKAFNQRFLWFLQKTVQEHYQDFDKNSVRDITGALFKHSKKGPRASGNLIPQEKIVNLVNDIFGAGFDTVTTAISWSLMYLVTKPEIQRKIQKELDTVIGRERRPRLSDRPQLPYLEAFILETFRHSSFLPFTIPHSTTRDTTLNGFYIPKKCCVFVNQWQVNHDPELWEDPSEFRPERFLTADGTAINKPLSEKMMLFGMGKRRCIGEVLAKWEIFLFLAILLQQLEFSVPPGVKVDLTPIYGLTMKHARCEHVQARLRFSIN

[8] = target: Cytochrome P450 2C9 (Homo sapiens, UniProt P11712); experiment: Inhibition of CYP2C9 (unknown origin) using MFC substrate after 45 mins by fluorescence assay; assay type: ADME
[9] = Half life in human liver microsomes at 1 uM in presence of NADPH by LC-MS method; assay type: ADME
[10] = Aqueous solubility at pH 7.4; assay type: physicochemical; conditions: buffer
[11] = target: Cytochrome P450 2C19 (Homo sapiens, UniProt P33261); experiment: Inhibition of CYP2C19 (unknown origin) using MFC substrate after 30 mins by fluorescence assay; assay type: ADME
[12] = AUC in SCID mouse at 50 mg/kg, ip after 8 hrs by LCMS/MS method; assay type: ADME, organism-based; set-up: time < 8 hr, dose 50 mg/kg, route intraperitoneal; conditions: plasma
[13] = Half life in mouse liver microsomes at 1 uM in presence of NADPH by LC-MS method; assay type: ADME
[14] = test system: MDA-MB-468; experiment: Cytotoxicity against human MDA-MB-468 cells after 5 days by SRB assay; assay type: functional; conditions: MDA-MB-468, 120 h
[15] = Cmax in SCID mouse at 50 mg/kg, ip after 8 hrs by LCMS/MS method; assay type: ADME, organism-based; set-up: dose 50 mg/kg, route intraperitoneal; conditions: in vivo
[16] = Cytotoxicity against human SKBR3 cells after 5 days by SRB assay; assay type: functional; conditions: SK-BR-3, 120 h
[17] = test system: MDA-MB-231; experiment: Cytotoxicity against human MDA-MB-231 cells after 5 days by SRB assay; assay type: functional; conditions: MDA-MB-231, 120 h
[18] = Cmax in SCID mouse at 25 mg/kg, po by LCMS/MS method; assay type: ADME, organism-based; set-up: dose 25 mg/kg, route oral; conditions: in vivo
[19] = AUC in SCID mouse at 25 mg/kg, po by LCMS/MS method; assay type: ADME, organism-based; set-up: dose 25 mg/kg, route oral; conditions: plasma

Sequence of Cytochrome P450 2C19 (P33261 whole entry): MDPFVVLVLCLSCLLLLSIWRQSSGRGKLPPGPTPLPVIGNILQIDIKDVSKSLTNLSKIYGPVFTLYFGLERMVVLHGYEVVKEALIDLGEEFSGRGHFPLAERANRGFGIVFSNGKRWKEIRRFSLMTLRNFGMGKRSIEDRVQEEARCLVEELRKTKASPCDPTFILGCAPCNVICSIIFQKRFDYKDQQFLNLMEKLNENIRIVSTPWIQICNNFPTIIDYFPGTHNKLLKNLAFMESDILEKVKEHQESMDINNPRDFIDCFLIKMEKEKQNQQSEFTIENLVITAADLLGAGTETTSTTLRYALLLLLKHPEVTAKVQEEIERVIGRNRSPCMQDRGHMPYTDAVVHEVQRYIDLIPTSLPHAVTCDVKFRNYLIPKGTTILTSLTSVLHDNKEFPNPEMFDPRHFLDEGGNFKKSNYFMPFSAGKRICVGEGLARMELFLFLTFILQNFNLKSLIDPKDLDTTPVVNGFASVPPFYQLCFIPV
Sequence of Cytochrome P450 2D6 (P10635 whole entry): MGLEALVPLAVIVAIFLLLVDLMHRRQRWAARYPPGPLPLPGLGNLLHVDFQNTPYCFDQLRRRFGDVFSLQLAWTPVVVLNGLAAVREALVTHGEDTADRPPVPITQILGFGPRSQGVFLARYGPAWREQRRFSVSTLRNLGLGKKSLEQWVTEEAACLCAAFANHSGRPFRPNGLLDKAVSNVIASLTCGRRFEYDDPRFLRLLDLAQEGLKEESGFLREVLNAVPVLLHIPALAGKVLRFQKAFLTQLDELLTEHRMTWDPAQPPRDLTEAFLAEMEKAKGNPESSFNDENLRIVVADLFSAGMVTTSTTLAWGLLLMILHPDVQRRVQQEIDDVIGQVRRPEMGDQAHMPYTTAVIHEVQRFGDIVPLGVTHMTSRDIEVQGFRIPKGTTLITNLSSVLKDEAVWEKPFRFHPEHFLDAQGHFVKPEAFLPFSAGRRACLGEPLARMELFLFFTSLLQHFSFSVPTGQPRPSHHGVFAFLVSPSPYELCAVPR
Sequence of Cytochrome P450 2C9 (P11712 whole entry): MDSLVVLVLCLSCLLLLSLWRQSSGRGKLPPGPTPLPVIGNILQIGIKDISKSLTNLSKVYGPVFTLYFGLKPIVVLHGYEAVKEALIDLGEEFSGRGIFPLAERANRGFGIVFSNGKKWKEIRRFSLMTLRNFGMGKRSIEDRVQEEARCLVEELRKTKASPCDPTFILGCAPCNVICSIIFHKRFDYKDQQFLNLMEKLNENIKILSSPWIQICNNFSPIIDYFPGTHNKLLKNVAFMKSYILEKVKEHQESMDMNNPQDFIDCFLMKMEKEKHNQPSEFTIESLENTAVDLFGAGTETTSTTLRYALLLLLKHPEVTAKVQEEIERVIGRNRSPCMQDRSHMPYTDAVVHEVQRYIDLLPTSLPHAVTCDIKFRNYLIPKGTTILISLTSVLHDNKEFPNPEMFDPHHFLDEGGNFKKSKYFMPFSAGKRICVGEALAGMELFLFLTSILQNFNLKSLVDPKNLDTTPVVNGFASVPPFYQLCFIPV
Sequence of Vascular endothelial growth factor receptor 2 (P35968 whole entry): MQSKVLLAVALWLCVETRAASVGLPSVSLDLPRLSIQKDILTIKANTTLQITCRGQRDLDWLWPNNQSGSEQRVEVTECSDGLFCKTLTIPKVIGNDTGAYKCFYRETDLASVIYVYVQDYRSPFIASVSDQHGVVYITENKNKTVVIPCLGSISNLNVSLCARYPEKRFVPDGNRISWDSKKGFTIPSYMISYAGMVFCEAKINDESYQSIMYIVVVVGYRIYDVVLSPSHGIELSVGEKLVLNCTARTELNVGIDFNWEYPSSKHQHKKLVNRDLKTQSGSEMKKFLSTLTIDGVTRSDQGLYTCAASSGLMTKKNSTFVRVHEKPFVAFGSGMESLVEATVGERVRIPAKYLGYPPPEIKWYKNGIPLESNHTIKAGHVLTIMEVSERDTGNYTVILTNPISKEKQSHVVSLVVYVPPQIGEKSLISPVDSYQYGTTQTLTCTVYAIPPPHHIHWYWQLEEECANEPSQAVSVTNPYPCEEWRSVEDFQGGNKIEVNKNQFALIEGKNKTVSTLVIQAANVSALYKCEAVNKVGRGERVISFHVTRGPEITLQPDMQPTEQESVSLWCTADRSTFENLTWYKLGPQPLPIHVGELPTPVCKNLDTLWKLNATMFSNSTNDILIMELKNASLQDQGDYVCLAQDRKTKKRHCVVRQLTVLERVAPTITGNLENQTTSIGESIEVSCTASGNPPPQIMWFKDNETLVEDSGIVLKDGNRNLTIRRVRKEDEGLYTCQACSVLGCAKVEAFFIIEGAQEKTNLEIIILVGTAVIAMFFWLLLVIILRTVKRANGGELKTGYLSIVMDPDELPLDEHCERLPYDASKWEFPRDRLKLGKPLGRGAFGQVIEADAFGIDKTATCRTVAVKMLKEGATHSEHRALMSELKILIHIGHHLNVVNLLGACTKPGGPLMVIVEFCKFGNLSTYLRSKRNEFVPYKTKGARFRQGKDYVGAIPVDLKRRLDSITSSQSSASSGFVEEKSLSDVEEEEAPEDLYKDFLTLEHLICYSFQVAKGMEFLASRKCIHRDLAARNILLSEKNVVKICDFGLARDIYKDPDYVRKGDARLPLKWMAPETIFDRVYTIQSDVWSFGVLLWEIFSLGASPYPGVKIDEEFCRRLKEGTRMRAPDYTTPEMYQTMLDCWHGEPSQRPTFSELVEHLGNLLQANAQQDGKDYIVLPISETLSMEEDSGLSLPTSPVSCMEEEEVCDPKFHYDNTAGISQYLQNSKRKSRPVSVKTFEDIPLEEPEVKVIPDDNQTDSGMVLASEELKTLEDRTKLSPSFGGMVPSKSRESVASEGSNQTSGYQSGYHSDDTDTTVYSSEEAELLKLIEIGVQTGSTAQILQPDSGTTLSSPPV
Sequence of Cytochrome P450 3A4 (P08684 whole entry): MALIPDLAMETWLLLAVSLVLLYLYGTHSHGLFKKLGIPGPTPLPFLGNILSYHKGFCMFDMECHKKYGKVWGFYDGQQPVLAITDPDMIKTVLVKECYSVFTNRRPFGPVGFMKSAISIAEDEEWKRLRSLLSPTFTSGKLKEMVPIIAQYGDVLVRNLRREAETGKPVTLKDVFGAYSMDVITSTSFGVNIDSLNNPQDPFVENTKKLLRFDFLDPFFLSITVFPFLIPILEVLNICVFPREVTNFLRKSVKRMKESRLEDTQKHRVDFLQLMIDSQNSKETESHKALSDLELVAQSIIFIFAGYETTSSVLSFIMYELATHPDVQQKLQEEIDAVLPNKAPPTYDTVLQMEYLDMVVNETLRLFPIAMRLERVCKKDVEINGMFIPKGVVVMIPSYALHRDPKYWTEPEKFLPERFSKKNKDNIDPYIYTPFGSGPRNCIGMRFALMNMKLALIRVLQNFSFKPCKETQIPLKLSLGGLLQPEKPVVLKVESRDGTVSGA

Compound	IC50 [1] [nM]	IC50 [3] [nM]	fraction unbound [4]	IC50 [5] [nM]	IC50 [6] [nM]	IC50 [7] [nM]	IC50 [8] [nM]	half-life at 1 µM [9] [min]	solubility [10] [µg/mL]	IC50 [11] [nM]	AUC at 8 h [12] [ng·h/mL]	half-life at 1 µM [13] [min]	Cmax [15] [ng/mL]	Cmax [18] [ng/mL]	AUC [19] [ng·h/mL]	GI50 [2] [nM]	GI50 [14] [nM]	GI50 [16] [nM]	GI50 [17] [nM]
Cc1ccc(/C=C/c2n[nH]c3cc([C@@H]4C[C@@]45C(=O)Nc4ccccc45)ccc23)cn1																280	140	7600	3800
O=C1Nc2ccc(F)cc2[C@]12C[C@H]2c1ccc2c(/C=C/c3ccc(CN4CCOCC4)cc3)n[nH]c2c1		> 1000		> 10000		> 10000	500			1000				3700	7940	900	20	10000	720
COc1ccc2c(c1)[C@]1(C[C@H]1c1ccc3c(/C=C/c4ccc(N5CCN(C)CC5)nc4)n[nH]c3c1)C(=O)N2 (relative stereo)		2100		> 10000	2000	> 10000	1600	16	0.19 (≈ 0.375 µM)	1600	450	9	200			10	6	13400	10
O=C1Nc2ccccc2[C@]12C[C@H]2c1ccc2c(/C=C/c3ccc(CN4CCCCC4)nc3)n[nH]c2c1 (relative stereo)																0.01	0.4	3400	35800
COc1ccc2c(c1)[C@]1(C[C@H]1c1ccc3c(/C=C/c4ccc(CN5CCCCC5)nc4)n[nH]c3c1)C(=O)N2 (relative stereo)							1400			600				290	740	0.01	0.02	9200	3900
CN(C)Cc1ccc(/C=C/c2n[nH]c3cc([C@@H]4C[C@@]45C(=O)Nc4ccc(OC(F)F)cc45)ccc23)cc1 (relative stereo)	32				4900											25	5	1600	4800
CN(C)Cc1ccc(/C=C/c2n[nH]c3cc([C@@H]4C[C@@]45C(=O)Nc4ccc(Cl)cc45)ccc23)cc1 (relative stereo)																0.01	0.06	3500	930
Cc1ccc2c(c1)[C@]1(C[C@H]1c1ccc3c(/C=C/c4ccc(CN(C)C)cc4)n[nH]c3c1)C(=O)N2 (relative stereo)																0.01	0.05	3400	2800
CN(C)Cc1ccc(/C=C/c2n[nH]c3cc([C@@H]4C[C@@]45C(=O)Nc4ccc(F)cc45)ccc23)cc1 (relative stereo)																100	10	2200	550
CCc1ccc2c(c1)[C@]1(C[C@H]1c1ccc3c(/C=C/c4ccc(CN(C)C)cc4)n[nH]c3c1)C(=O)N2 (relative stereo)																240	10	2000	2000
COc1ccc2c(c1)[C@]1(C[C@H]1c1ccc3c(/C=C/c4ccc(CN5CCOCC5)cc4)n[nH]c3c1)C(=O)N2 (relative stereo)		> 1000		> 1000	24000	> 10000	1400			2100				1700	4900	< 10	< 10	13800	< 10
Cc1ccc2c(c1)[C@]1(C[C@H]1c1ccc3c(/C=C/c4ccc(CN5CCOCC5)cc4)n[nH]c3c1)C(=O)N2 (relative stereo)																80	30	8800	560
COc1ccc2c(c1)[C@]1(C[C@H]1c1ccc3c(/C=C/c4cc(F)c(CN5CCOCC5)c(F)c4)n[nH]c3c1)C(=O)N2 (relative stereo)					7900											50	60	3700	1700
O=C1Nc2ccccc2[C@]12C[C@H]2c1ccc2c(/C=C/c3ccc(CN4CCCC4)cc3)n[nH]c2c1 (relative stereo)																50	< 10	4100	1900
CNC(=O)c1ccccc1Sc1ccc2c(/C=C/c3ccccn3)n[nH]c2c1 [AXITINIB]																2300	2800	4600	

More lines, main results first:

IC50 [1] [nM]	IC50 [3] [nM]	fraction unbound [4]	IC50 [5] [nM]	IC50 [6] [nM]	IC50 [7] [nM]	IC50 [8] [nM]	half-life at 1 µM [9] [min]	solubility [10] [µg/mL]	IC50 [11] [nM]	AUC at 8 h [12] [ng·h/mL]	half-life at 1 µM [13] [min]	Cmax [15] [ng/mL]	Cmax [18] [ng/mL]	AUC [19] [ng·h/mL]	Compound	GI50 [2] [nM]	GI50 [14] [nM]	GI50 [16] [nM]	GI50 [17] [nM]
140	10000	< 0.001	> 1000	2500	50	500	54	0.7 (≈ 2.68 µM)	210	61	5	11			O=C1Nc2ccccc2/C1=C/c1ccc2cn[nH]c2c1	5300	4600		
	> 1000		> 1000		140	320			110				37	93	O=C1Nc2ccccc2[C@]12C[C@H]2c1ccc2c(/C=C/c3cccnc3)n[nH]c2c1 (relative stereo)	3600	9	14700	50000
59				2100											Cc1ccc(/C=C/c2n[nH]c3cc([C@@H]4C[C@@]45C(=O)Nc4ccccc45)ccc23)c(C)n1 (relative stereo)	6800	70	50000	> 50000
	> 1000		> 10000	1400	> 10000	1400			1800				1800	4300	O=C1Nc2ccccc2[C@]12C[C@H]2c1ccc2c(/C=C/c3ccc(CN4CCOCC4)cc3)n[nH]c2c1 (relative stereo)	10	10	11300	< 10
120	> 10000		> 10000	120	> 1000	> 1000			> 1000				190	580	CN1CCN(Cc2ccc(/C=C/c3n[nH]c4cc([C@@H]5C[C@@]56C(=O)Nc5ccccc56)ccc34)cc2)CC1 (relative stereo)	10	10	6000	2500
				12											O=C1Nc2ccccc2[C@]12C[C@H]2c1ccc2c(/C=C/c3ccc(CN4CCCCC4)cc3)n[nH]c2c1 (relative stereo)	600	500	800	900
